Data as given in patent US20230131899A1, “INHIBITORS OF MICROBIALLY INDUCED AMYLOID” (Axial Therapeutics, Inc., priority 2020, published 2023).
Like-named read-outs stand apart in the source and are kept apart here.

Key:
[1] = biological target: T1, human α-synuclein (Homo sapiens, UniProt P37840); assay: Cell-free Thioflavin T assay of α-synuclein aggregation (αSyn ThT Assay); format: biochemical; details: αSyn 50 μM
T1 construct: the full-length gene for untagged human α-synuclein was inserted; made in house; host or cells: E. coli BL21(DE3), plasmid derived from pT7 or pET11a
Description: To assess the effects of compounds on aggregation of α-synuclein, a cell-free assay was performed using purified α-synuclein and Thioflavin T. In the assay, human α-synuclein was expressed in E. coli BL21(DE3) from a plasmid derived from pT7 or pET11a into which the full-length gene for untagged human α-synuclein was inserted. Cells were induced at OD600 0.6 with 0.8 mM IPTG for 4 hours, harvested by centrifugation and suspended in a volume of lysis buffer (10 mM Tris, pH 8.0, 1 mM EDTA, and 1 mM PMSF) equivalent to one-tenth the volume of culture and lysed by boiling for 20 minutes. Cell debris was pelleted by centrifugation, clarified lysate was treated with 10% streptomycin sulfate at 136 μL/mL followed by glacial acetic acid at 228 μL/mL, lysate was centrifuged, supernatant was transferred to a fresh tube and protein was precipitated via addition of an equal volume of saturated (100%) ammonium sulfate and incubated at 4° C. on a rocking shaker for 1 hour. The protein was pelleted via centrifugation and washed with an equal volume of 100 mM ammonium acetate in chilled ethanol, pelleted via centrifugation, washed twice with chilled ethanol, dried overnight, resuspended in 50 mM potassium phosphate buffer pH 7.3 or 10 mM Tris pH 7.4, and passed through a 50 kDa cut-off column. Immediately prior to use, the purified α-synuclein was filtered with a 0.2 μm nylon filter. The assay was conducted in 96-well black microplates with a single 1-2 mm glass bead in each well, 20-40 μM ThioflavinT, 1% DMSO, α-synuclein at 50 μM and compounds at 20-100 μM. Plates were sealed with sealing tape (ThermoFisher 232701), incubated at 37° C. in a Tecan Nano F200 plate reader with excitation at 438 nm using a 439 nm filter with a bandwidth of 8 nm, and emission at 495 nm with a 490 nm filter with a bandwidth of 10 nm. During the assay, plates were shaken continuously or were shaken for 999 seconds every 18 minutes. Readings were performed hourly for up to 73 hours. The effect of compounds on α-synuclein aggregation in the assay was determined with data at 36, 47, 48 or 72 hours or from the final timepoint of the assay, prior to or roughly near the time when ThT fluorescence plateaued in the vehicle control wells. The vehicle controls contained all components of the assay except compounds and represented the level of α-synuclein aggregation in the absence of an inhibitor or accelerator. Fluorescence values for each compound with α-synuclein were first adjusted by subtracting the average fluorescence of the compound in the absence of α-synuclein. These adjusted values were normalized by dividing them by the average fluorescence at the same timepoint in the vehicle control wells, and the average normalized fluorescence with the compound was expressed as a percentage of the average fluorescence observed in untreated controls. Percent inhibition of α-synuclein aggregation by a compound was determined by subtracting the percent average fluorescence with the compound relative to the average vehicle control from 100%. A higher positive percent inhibition reflects greater inhibition of α-synuclein aggregation, while a negative percent inhibition reflects potentiation of α-synuclein aggregation.
Alternate concentrations of Thioflavin T may be used in the assay and may affect the fluorescent signal and sensitivity of the assay. Alternate concentrations of α-synuclein may be used and such alterations may affect aggregation kinetics of α-synuclein in the assay. Alternate concentrations of compounds may be tested in the assay, and dose-responses may be evaluated. Additional reagents may be added to the assay which may affect aggregation kinetics of α-synuclein depending on their concentration, including detergents such as sodium dodecyl sulfate, sodium chloride, dithiotreitol, or bovine serum albumin. Shaking may be included at alternate intervals in the assay and may affect α-synuclein aggregation kinetics. […]

[2] = system: CsgA gene expression (csgBAC promoter-GFP reporter) in E. coli UTI89; assay: In vitro live cell fluorescent reporter assay of CsgA transcription (Reporter Assay); format: cell-based; details: Escherichia coli
In short: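 Chromosomal single-copy csgBAC promoter–GFP reporter in E. coli UTI89, started at OD600 0.003 in YESCA broth with compound (0.14–100 μM, 1% DMSO), 20 h at 27 °C. GFP (ex 485/em 525 nm) background-subtracted and normalized to vehicle; IC50 and X[50] from curve fits. OD600 tracked growth effects.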

[3] = class symbol, compounds 100 μM, read-out: αSyn ThT Assay % inhibition, activity range
[4] = mean percent inhibition relative to DMSO control, compounds 100 μM, read-out: αSyn ThT Assay % inhibition
[5] = read-out: Reporter Assay Abs IC50 (μM), median Abs IC50 in the CsgA reporter assay, N/A = maximum expression reduction is <50% of control
[6] = read-out: Reporter Assay Abs IC50, activity range, class symbol

Structure (SMILES)	inhibition at 100 µM [1, 3] [%]	inhibition at 100 µM [1, 4] [%]	IC50 [2, 5] [µM]	IC50 [2, 6] [µM]	inhibition at 100 µM ([1]; mean % inhibition of αSyn aggregation relative to DMSO control, compounds at 100 μM, read-out: αSyn ThT Assay % Inhibition) [%]	inhibition at 100 µM ([1]; compounds at 100 μM, class symbol, read-out: αSyn ThT Assay % Inhibition (activity range)) [%]	IC50 ([2]; read-out: Reporter Assay Abs IC50 (activity range), median Abs IC50 in the CsgA reporter assay, class symbol) [µM]
COc1cc(Cc2cc(=O)n3c(c2-c2cccc(C(F)(F)F)c2)N(Cc2ccccc2)CC3C(=O)O)c2ccccc2c1 (stereo not drawn) [Compound 233, 1-benzyl-7-((3-methoxynaphthalen-1-yl)methyl)-5-oxo-8-(3-(trifluoromethyl)phenyl)-1,2,3,5-tetrahydroimidazo[1,2-a]pyridine-3-carboxylic acid]	31 to 60	50	0.6	< 1.3	–	–	–
N#Cc1ccccc1CN1CC(C(=O)O)n2c1c(-c1cccc(C(F)(F)F)c1)c(Cc1cccc3ccccc13)c(Cl)c2=O (stereo not drawn) [Compound 165, 6-chloro-1-(2-cyanobenzyl)-7-(naphthalen-1-ylmethyl)-5-oxo-8-(3-(trifluoromethyl)phenyl)-1,2,3,5-tetrahydroimidazo[1,2-a]pyridine-3-carboxylic acid]	11 to 30	30	0.8	< 1.3	–	–	–
CC(C)(C)c1ccc(CCN2CC(C(=O)O)n3c2c(-c2cccc(C(F)(F)F)c2)c(Cc2cccc4ccccc24)c(Cl)c3=O)cc1 (stereo not drawn) [Compound 239, 1-(4-(tert-butyl)phenethyl)-6-chloro-7-(naphthalen-1-ylmethyl)-5-oxo-8-(3-(trifluoromethyl)phenyl)-1,2,3,5-tetrahydroimidazo[1,2-a]pyridine-3-carboxylic acid]	31 to 60	58	0.6	< 1.3	–	–	–
COc1cc(Cc2c(-c3cccc(C(F)(F)F)c3)c3n(c(=O)c2Cl)C(C(=O)O)CN3Cc2ccccc2)c2ccccc2c1 (stereo not drawn) [Compound 234, 1-benzyl-6-chloro-7-((3-methoxynaphthalen-1-yl)methyl)-5-oxo-8-(3-(trifluoromethyl)phenyl)-1,2,3,5-tetrahydroimidazo[1,2-a]pyridine-3-carboxylic acid]	> 60	70	0.4	< 1.3	–	–	–
COc1ccccc1CN1CC(C(=O)O)n2c1c(-c1cccc(C(F)(F)F)c1)c(Cc1cccc3ccccc13)c(Cl)c2=O (stereo not drawn) [Compound 195, 6-chloro-1-(2-methoxybenzyl)-7-(naphthalen-1-ylmethyl)-5-oxo-8-(3-(trifluoromethyl)phenyl)-1,2,3,5-tetrahydroimidazo[1,2-a]pyridine-3-carboxylic acid]	31 to 60	45	1.8	1.3 to 4.5	–	–	–
O=C(O)C1CN(CCc2cccc3ccccc23)c2c(-c3cccc(C(F)(F)F)c3)c(Cc3cccc4ccccc34)c(Cl)c(=O)n21 (stereo not drawn) [Compound 238, 6-chloro-1-(2-(naphthalen-1-yl)ethyl)-7-(naphthalen-1-ylmethyl)-5-oxo-8-(3-(trifluoromethyl)phenyl)-1,2,3,5-tetrahydroimidazo[1,2-a]pyridine-3-carboxylic acid]	> 60	94	0.7	< 1.3	–	–	–
O=C(O)C1CN(CCCCCCN2CC(C(=O)O)n3c(c(-c4cccc(C(F)(F)F)c4)c(Cc4cccc5ccccc45)cc3=O)S2(=O)=O)S(=O)(=O)c2c(-c3cccc(C(F)(F)F)c3)c(Cc3cccc4ccccc34)cc(=O)n21 (racemic) [Compound 043, 2,2′-(hexane-1,6-diyl)bis(8-(naphthalen-1-ylmethyl)-6-oxo-9-(3-(trifluoromethyl)phenyl)-3,4-dihydro-2H,6H-pyrido[1,2-e][1,2,5]thiadiazine-4-carboxylic acid 1,1-dioxide)]	–	–	0.7	–	72	> 60	< 1.3
N#Cc1ccc(CN2CC(C(=O)O)n3c2c(-c2cccc(C(F)(F)F)c2)c(Cc2cccc4ccccc24)c(Cl)c3=O)cc1 (stereo not drawn) [Compound 171, 6-chloro-1-(4-cyanobenzyl)-7-(naphthalen-1-ylmethyl)-5-oxo-8-(3-(trifluoromethyl)phenyl)-1,2,3,5-tetrahydroimidazo[1,2-a]pyridine-3-carboxylic acid]	31 to 60	32	1.1	< 1.3	–	–	–
O=C(O)C1CN(Cc2ccccc2)c2c(-c3cccc(C(F)(F)F)c3)c(Cc3ccc(Cl)c4ccccc34)cc(=O)n21 (stereo not drawn) [Compound 232, 1-benzyl-7-((4-chloronaphthalen-1-yl)methyl)-5-oxo-8-(3-(trifluoromethyl)phenyl)-1,2,3,5-tetrahydroimidazo[1,2-a] pyridine-3-carboxylic acid]	11 to 30	23	0.7	< 1.3	–	–	–
